Results taken from patent publication US8367715B2, “Pyrazole derivatives, preparation thereof, and therapeutic use thereof” (priority 2009, dated 2013).

Assays:
[1] = tested on: B16 melanoma; test: In vivo antitumour activity against B16 melanoma grafted subcutaneously in mice, oral administration; conditions: for T − C in days 750 mg: tumours reaching 750 mg
Text: This activity of the compounds of the invention on […] tumours was studied on the B16 melanoma. […]
A product is considered to be active if log10 cell kill is greater than or equal to 0.7. A product is considered to be very active if log10 cell kill is greater than 2.8.
The animals bearing the tumours are randomized before being subjected to the various treatments and controls. In the case of treatment of tumours of the present invention, the treatment was started at an early stage, 3 to 4 days after implantation. […]
The tumours are measured two or three times a week until the tumour reaches approximately 2 g or until the death of the animal if the latter occurs before the tumour reaches 2 g. The animals are autopsied at the time of sacrifice.
The antitumour activity is determined according to the various parameters recorded.

[2] = target: FLT1 (Homo sapiens, UniProt P17948); test: FLT1 kinase phosphorylation activity by radioactive labeling; format: biochemical; conditions: read-out: FLT1, concentration that inhibits 50% of the kinase activity
Chain of FLT1 (P17948 27-1338, species assumed): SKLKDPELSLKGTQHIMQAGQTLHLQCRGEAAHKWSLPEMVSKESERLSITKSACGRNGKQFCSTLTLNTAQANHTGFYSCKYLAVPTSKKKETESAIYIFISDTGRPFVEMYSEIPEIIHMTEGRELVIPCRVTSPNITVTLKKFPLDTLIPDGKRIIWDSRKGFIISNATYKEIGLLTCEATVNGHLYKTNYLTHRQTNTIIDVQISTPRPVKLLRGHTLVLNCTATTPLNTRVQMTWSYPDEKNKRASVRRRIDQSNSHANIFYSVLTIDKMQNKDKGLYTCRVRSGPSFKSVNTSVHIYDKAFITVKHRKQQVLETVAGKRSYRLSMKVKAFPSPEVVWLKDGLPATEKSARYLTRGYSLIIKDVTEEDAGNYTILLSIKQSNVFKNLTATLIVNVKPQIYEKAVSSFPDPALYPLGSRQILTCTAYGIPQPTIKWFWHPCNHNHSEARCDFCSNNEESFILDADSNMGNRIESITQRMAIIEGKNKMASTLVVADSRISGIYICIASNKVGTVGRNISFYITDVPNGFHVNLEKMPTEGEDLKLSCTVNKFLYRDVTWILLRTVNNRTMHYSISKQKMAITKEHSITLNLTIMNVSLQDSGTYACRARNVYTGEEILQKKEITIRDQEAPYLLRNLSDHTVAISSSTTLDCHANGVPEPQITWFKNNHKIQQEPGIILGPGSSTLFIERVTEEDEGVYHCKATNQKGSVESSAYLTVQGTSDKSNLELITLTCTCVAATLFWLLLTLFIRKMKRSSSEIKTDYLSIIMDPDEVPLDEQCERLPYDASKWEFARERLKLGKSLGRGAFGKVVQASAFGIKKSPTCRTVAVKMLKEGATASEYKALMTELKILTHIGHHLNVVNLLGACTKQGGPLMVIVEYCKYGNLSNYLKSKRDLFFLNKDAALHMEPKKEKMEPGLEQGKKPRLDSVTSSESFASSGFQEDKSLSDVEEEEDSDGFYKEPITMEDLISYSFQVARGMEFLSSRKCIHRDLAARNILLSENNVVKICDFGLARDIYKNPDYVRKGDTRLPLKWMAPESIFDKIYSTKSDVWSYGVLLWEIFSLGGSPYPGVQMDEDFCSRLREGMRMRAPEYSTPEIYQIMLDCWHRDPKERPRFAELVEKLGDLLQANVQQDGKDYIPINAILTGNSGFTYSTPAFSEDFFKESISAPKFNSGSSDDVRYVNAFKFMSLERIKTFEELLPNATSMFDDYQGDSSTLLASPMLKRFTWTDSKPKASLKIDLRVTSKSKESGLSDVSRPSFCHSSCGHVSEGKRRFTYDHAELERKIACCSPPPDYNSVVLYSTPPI
Procedure: 3. […] The inhibition of the FLT1 activity is calculated and expressed as percentage of inhibition relative to the control activity determined in the absence of compound. The percentage of inhibition corresponding to each concentration of molecules is calculated thus: % inhibition=(mean CPM of the control wells−CPM of each)

[3] = tested on: human hepatocytes; test: Intrinsic clearance using human hepatocytes; format: in vitro ADME; conditions: for intrinsic clearance value: 5 μM, 0-24 hours; for inter-individual variability of intrinsic clearance: cryopreserved and fresh donor preparations
Procedure: Evaluation of the intrinsic clearance of the compounds using human hepatocytes: experimental protocol.
NB: The in vitro test described below on human liver cells is used to predict an important pharmacokinetic parameter: the metabolization by the liver for a given compound when it is administered to man.
Incubations of cryopreserved preparations of human hepatocytes (from IVT: IVT-TLN-180608 from In Vitro Technologies, inc. Baltimore, Md., USA) and fresh preparations of human hepatocytes (from Biopredic: HEP200239) were carried out in plates comprising 48 collagen-coated wells.
The kinetics were initiated by the addition, to the culture medium, of the compounds at a final concentration of 5 μM, in the absence or in the presence of 10 μM ketoconazole (CYP3A4 inhibitor). The incubation volume is 100 μl, the incubation time: 0-24 hours (standard kinetic points: 0-0.5-1-2-4-6-8-24 hours).
The kinetics were stopped by addition of acetonitrile/water, with corticosterone, as an internal standard. The cells were detached then lysed. The intracellular and extracellular media were recombined and frozen (−20° C.) in order to be stored until the LC-MS/MS analysis.
The combined extracellular and intracellular media were defrosted, submitted to ultrasound action, agitated with a vortex and centrifuged at 3000 g for 20 minutes. The supernatants were injected and analysed by LC-MS/MS.
The maximum initial in vitro rate was calculated for the specific metabolites of the P450 cytochromes and expressed in nmol/hour/million of cells. V=[concentration at T(n)−concentration at T(n−1)]/[T(n)−T(n−1)]
The intrinsic clearance was determined and expressed in ml/hour/million of cells Clint=dose/AUC0-24 h Dose=amount at T(0)(nmol/million of cells)
AUC0-24 h: calculated by WinNonlin, with a non-compartmental analysis modeling an intravenous injection of bolus type
From IVT: ● IVT, TLN group: person
From Biopredic: ● HEP200239: person, unknown

[4] = target: T1, human Tie2 (Homo sapiens, UniProt Q02763); test: Tie2 kinase inhibition, phosphorylation of PLCγ substrate, scintillation Flash Plate; format: biochemical; conditions: read-out: Tie2, concentration that inhibits 50% of the kinase activity
T1 construct: human Tie2 corresponding to the amino acids of the intracellular domain 774-1124; made in house; host or cells: baculovirus expression (pFastBacGT)
T1 sequence (Q02763 774-1124): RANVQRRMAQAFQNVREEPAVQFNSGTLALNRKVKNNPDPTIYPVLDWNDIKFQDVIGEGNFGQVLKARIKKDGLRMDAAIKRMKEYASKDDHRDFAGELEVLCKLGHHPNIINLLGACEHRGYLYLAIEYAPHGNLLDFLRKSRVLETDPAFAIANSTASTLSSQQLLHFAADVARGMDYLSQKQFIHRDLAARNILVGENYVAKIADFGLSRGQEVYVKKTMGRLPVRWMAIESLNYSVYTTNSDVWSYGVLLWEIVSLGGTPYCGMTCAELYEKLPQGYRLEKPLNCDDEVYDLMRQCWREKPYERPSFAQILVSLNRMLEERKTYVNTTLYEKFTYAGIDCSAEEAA
Procedure: The inhibitory effect of the compounds is determined in an in vitro test of phosphorylation of substrate via a scintillation technique (96-well plate of basic Flash Plate type).
The coding sequence of human Tie2 corresponding to the amino acids of the intracellular domain 774-1124 was introduced into a pFastBacGT baculovirus expression vector in the form of a GST fusion protein. GST-Tie2 was purified and activated by autophosphorylation. The substrate is composed of residues 658 to 850 of the PLCγ expressed and purified in the form of a GST fusion protein.
The kinase activity of Tie2 is measured in a MOPS 20 mM pH 7.4 buffer, containing 10 mM MgCl2, 10 mM MnCl2 and 1 mM DTT. The compounds are initially diluted in 100% DMSO, then prepared as a 10× solution in 30% DMSO/70% buffer. […] The radioactivity in each well is measured using a Trilux-βWallac radioactivity counter.
The background noise is determined by measuring the radioactivity in four different wells containing ATP (radiolabeled and cold) and the substrate, in the absence of enzyme and of compound. The control activity is measured in four different wells containing all the reagents, but in the absence of compound.
The inhibition of the Tie2 activity is calculated and expressed as a percentage of inhibition relative to the control activity determined in the absence of compound.

[5] = PO 61.5 mg/kg/adm, day 3-10 (2x/d)
[6] = PO 99.2 mg/kg/adm, day 3-10 (2x/d)
[7] = PO 62 mg/kg/adm, days 4-14 (2x/d)
[8] = PO 99 mg/kg/adm, days 4-14 (2x/d)
[9] = PO 160.0 mg/kg/adm, days 4-14 (2x/d)

Cl.NC(=O)c1n[nH]cc1NCc1cc(F)cc(NC(=O)Nc2ccc(C(F)(F)F)cc2F)c1 [Example 2, 4-{3-[3-(2-Fluoro-4-trifluoromethylphenyl)ureido]-5-fluorobenzylamino}-1H-pyrazole-3-carboxamide hydrochloride]
Comments ([1]; PO 44.0 mg/kg/adm, day 3-10): Active | Total log cell kill ([1]; PO 44.0 mg/kg/adm, day 3-10): 1.0 | Death due to the product (day of death) ([1]; PO 44.0 mg/kg/adm, day 3-10, total 352.0 mg/kg, BCM-1979): 0/6 | Average weight of the tumour in mg on day 11 ([1]; PO 44.0 mg/kg/adm, day 3-10): 201 mg | T/C in % day 11 ([1]; PO 44.0 mg/kg/adm, day 3-10): 27% | % BWC (day of low point) ([1]; PO 44.0 mg/kg/adm, day 3-10, low point day 11): +6.6 (11) % | T − C in days 750 mg ([1]; PO 44.0 mg/kg/adm, day 3-10): 3.0 days | Comments [1, 5]: Active | Total log cell kill [1, 5]: 1.7 | Death due to the product (day of death) ([1]; PO 61.5 mg/kg/adm, day 3-10 (2x/d), total 984 mg/kg, BCM-1979): 0/6 | Average weight of the tumour in mg on day 11 [1, 5]: 46 mg | T/C in % day 11 [1, 5]: 6% | % BWC (day of low point) ([1]; PO 61.5 mg/kg/adm, day 3-10 (2x/d), low point day 11): +3.9 (11) % | T − C in days 750 mg [1, 5]: 5.0 days | Total log cell kill [1, 6]: 1.8 | Death due to the product (day of death) ([1]; PO 99.2 mg/kg/adm, day 3-10 (2x/d), total 1587.2 mg/kg, BCM-1979): 0/6 | Comments ([1]; PO 99.2 mg/kg/adm, day 3-10 (2x/d), HNTD = highest nontoxic dose): HNTD active | Average weight of the tumour in mg on day 11 [1, 6]: 0 mg | T/C in % day 11 [1, 6]: 0% | % BWC (day of low point) ([1]; PO 99.2 mg/kg/adm, day 3-10 (2x/d), low point day 11): −8.1 (11) % | T − C in days 750 mg [1, 6]: 5.4 days | Comments ([1]; PO 160.0 mg/kg/adm, day 3-10 (2x/d)): Toxic | Death due to the product (day of death) ([1]; PO 160.0 mg/kg/adm, day 3-10 (2x/d), total 2560.0 mg/kg, BCM-1979, days of death 10, 2d11, 13, 2d14): 6/6 | % BWC (day of low point) ([1]; PO 160.0 mg/kg/adm, day 3-10 (2x/d), low point day 13): −26.5 (13) % | IC50 [2]: 1.3 nM | classification of the intrinsic clearance [3]: intermediate (Clint<0.040 ml·h^−1·10^−6 cell: intermediate intrinsic clearance) | intrinsic clearance value [3]: 0.055 ml/h/million of cells | inter-individual variability of intrinsic clearance [3]: low | IC50 [4]: 39 nM

Cl.NC(=O)c1n[nH]cc1NCc1cc(F)cc(NC(=O)Nc2ccc(C(F)(F)F)cc2Cl)c1 [Example 1, 4-{3-[3-(2-Chloro-4-trifluoromethylphenyl)ureido]-5-fluorobenzylamino}-1H-pyrazole-3-carboxamide hydrochloride]
Comments ([1]; PO 44 mg/kg/adm, day 4-14): Inactive | Death due to the product (day of death) ([1]; PO 44 mg/kg/adm, day 4-14, total 481 mg/kg, BCM-1948): 0/5 | Average weight of the tumour in mg on day 13 ([1]; PO 44 mg/kg/adm, day 4-14): 686 mg | T/C in % day 13 ([1]; PO 44 mg/kg/adm, day 4-14): 51% | % BWC (day of low point) ([1]; PO 44 mg/kg/adm, day 4-14, low point day 15): +10.6 (15) % | Comments [1, 7]: Active | Total log cell kill [1, 7]: 2.3 | Death due to the product (day of death) ([1]; PO 62 mg/kg/adm, days 4-14 (2x/d), total 1232 mg/kg, BCM-1948): 0/5 | Average weight of the tumour in mg on day 13 [1, 7]: 128 mg | T/C in % day 13 [1, 7]: 10% | % BWC (day of low point) ([1]; PO 62 mg/kg/adm, days 4-14 (2x/d), low point day 5): +1.8 (5) % | T − C in days 750 mg [1, 7]: 6.2 days | Comments [1, 8]: Active | Total log cell kill [1, 8]: 2.3 | Death due to the product (day of death) ([1]; PO 99 mg/kg/adm, days 4-14 (2x/d), total 1966 mg/kg, BCM-1948): 0/5 | Average weight of the tumour in mg on day 13 [1, 8]: 72 mg | T/C in % day 13 [1, 8]: 5% | % BWC (day of low point) ([1]; PO 99 mg/kg/adm, days 4-14 (2x/d), low point day 5): −1.0 (5) % | T − C in days 750 mg [1, 8]: 6.2 days | Total log cell kill [1, 9]: 2.6 | Death due to the product (day of death) ([1]; PO 160.0 mg/kg/adm, days 4-14 (2x/d), total 3178 mg/kg, BCM-1948): 0/5 | Comments ([1]; PO 160.0 mg/kg/adm, days 4-14 (2x/d), HDT = highest dose tested): HDT active | Average weight of the tumour in mg on day 13 [1, 9]: 23 mg | T/C in % day 13 [1, 9]: 2% | % BWC (day of low point) ([1]; PO 160.0 mg/kg/adm, days 4-14 (2x/d), low point day 6): −2.3 (6) % | T − C in days 750 mg [1, 9]: 6.8 days | IC50 [2]: 3 nM | classification of the intrinsic clearance [3]: intermediate (Clint<0.040 ml·h^−1·10^−6 cell: intermediate intrinsic clearance) | intrinsic clearance value [3]: 0.057 ml/hour/million of cells | inter-individual variability of intrinsic clearance [3]: low | IC50 [4]: 36 nM
